Experimental data as given in ChEMBL document CHEMBL1123660 (J Med Chem, 1987).
pKi: −log10 of the molar value.

How the values were obtained:
[1] = system: Platelet-activating factor receptor (Oryctolagus cuniculus); assay: Percent inhibition of [3H]PAF to platelet-activating factor (PAF) receptor from rabbit platelet membranes at; conditions: concentration not given here
[2] = species on record: Oryctolagus cuniculus; assay: PAF antagonism was determined by rabbit platelet inhibition and neurophil aggregation and degranulation at 0.1 to 1 uM concentration.; format: functional

inhibition [1] [%]	Structure (SMILES)	pKi [2]
61	CCCC1=C[C@]2(OC)C(=CC1=O)O[C@H](c1ccc(OC)c(OC)c1)[C@H]2C	
	C=CCC1=C[C@@]2(OC)C(=CC1=O)O[C@H](c1ccc(OC)c(OC)c1)[C@H]2C (stereo in doubt) [KADSURENONE]	7.24
